Measured values from PubChem BioAssay AID210 (DTP/NCI, 2004).
Where “and” joins values, the source holds several entries; their conditions need not be identical. Equal entries are not always repeated. Inconclusive results and toxic doses are left out. *1 amine or outer side, *2 acyl side, *3 side chain or, on linkers, in order; H or OH if unused. Where a SMILES comes first, the peptide text is derived from it. Bridges are numbered along the chain shown (N, C = ends). Roman numbers before positions name the chains, in order. [ ]: non-standard residue; d: D form. Actinocin(9to1) = Cc1c2oc3c(C)ccc(C(=O)[*:1])c3nc-2c(C(=O)[*:2])c(N)c1=O; aThr = C[C@H](O)[C@H](N)C(=O)O; NMeV = CN[C@H](C(=O)O)C(C)C; Sar = CNCC(=O)O

Tested on: CD2F1 mice, ip Colon 26 adenocarcinoma, median survival T/C
Assay: NCI In Vivo Anticancer Drug Screen. Data for tumor model Colon 26 Adenocarcinoma (intraperitoneal) in CD2F1 (CDF1) mice
Details: endpoint: median survival time, higher = longer survival
Method: The antitumor activity of compounds was measured in mice bearing transplantable tumors. Survival or tumor size were measured and the results are expressed as the measurement made in the treated group (T) divided by the measurement made in the vehicle treated control group (C). The tumor model used in this assay is Colon 26 Adenocarcinoma (intraperitoneal) in CD2F1 (CDF1) mice

[1] = dose: 25.0 mg/kg/injection, schedule: Q04DX003 (ip), vehicle: Klucel (hydroxypropylcellulose) (HPC)
[2] = dose: 100.0 mg/kg/injection, schedule: Q04DX003 (ip), vehicle: Klucel (hydroxypropylcellulose) (HPC)

In the case of `Cc1c2oc3c(C)ccc(C(=O)N[C@@H]4C(=O)N[C@H](C(C)C)C(=O)N5CCC[C@H]5C(=O)N(C)CC(=O)N(C)[C@@H](C(C)C)C(=O)O[C@H]4C)c3nc-2c(C(=O)N[C@@H]2C(=O)N[C@H](C(C)C)C(=O)N3CCC[C@H]3C(=O)N(C)CC(=O)N(C)[C@@H](C(C)C)C(=O)O[C@H]2C)c(N)c1=O` (I: [aThr][dV]P[Sar][NMeV] / II: [aThr][dV]P[Sar][NMeV]; ester I:1-I:C, II:1-II:C; linker I:N-II:N via Actinocin(9to1)), the T/C (dose: 0.13 mg/kg/injection, schedule: Q01DX001 (ip), vehicle: saline) is reported as 92 % of control, the T/C (dose: 0.25 mg/kg/injection, schedule: Q01DX001 (ip), vehicle: saline) is reported as 99 % of control and the T/C (dose: 0.5 mg/kg/injection, schedule: Q01DX001 (ip), vehicle: saline) is reported as 110 % of control. The T/C (dose: 1.0 mg/kg/injection, schedule: Q01DX001 (ip), vehicle: saline) was 107 % of control, the T/C (dose: 28.0 micrograms/kg/injection, schedule: Q04DX003 (ip), vehicle: saline) was 122 % of control and the T/C (dose: 125.0 micrograms/kg/injection, schedule: Q01DX001 (ip), vehicle: saline + alcohol) was 113 % of control. For the same compound, the T/C (dose: 180.0 micrograms/kg/injection, schedule: Q04DX003 (ip), vehicle: saline + alcohol) was 123 % of control, the T/C (dose: 216.0 micrograms/kg/injection, schedule: Q04DX003 (ip), vehicle: saline) was 156 % of control and the T/C (dose: 250.0 micrograms/kg/injection, schedule: Q01DX001 (ip), vehicle: saline + alcohol) was 109 % of control. For the same compound, the T/C (dose: 500.0 micrograms/kg/injection, schedule: Q01DX001 (ip), vehicle: saline + alcohol) was 113 % of control and the T/C (dose: 500.0 micrograms/kg/injection, schedule: Q04DX003 (ip), vehicle: saline + alcohol) was 153 % of control.

In the case of `CCCC(=O)OCc1cc(=O)n(C)c2c3c4c(cc12)c(C)cc(=O)n4CO3`, the T/C (dose: 6.25 mg/kg/injection, schedule: Q04DX003 (ip), vehicle: Klucel (hydroxypropylcellulose) (HPC)) is reported as 98 % of control, the T/C (dose: 12.5 mg/kg/injection, schedule: Q04DX003 (ip), vehicle: Klucel (hydroxypropylcellulose) (HPC)) is reported as 104 % of control and the T/C [1] is reported as 123 % of control. For the same compound, the T/C [2] was 152 % of control.

In the case of `C[C@]1(O)CC[C@H]2[C@@H]3CCC4=CC(=O)CC[C@]4(C)[C@@]3(F)[C@@H](O)C[C@@]21C`, the T/C [1] is reported as 94 % of control, the T/C (dose: 50.0 mg/kg/injection, schedule: Q04DX003 (ip), vehicle: Klucel (hydroxypropylcellulose) (HPC)) is reported as 105 % of control and the T/C [2] is reported as 108 % of control. The T/C (dose: 200.0 mg/kg/injection, schedule: Q04DX003 (ip), vehicle: Klucel (hydroxypropylcellulose) (HPC)) was 99 % of control and the T/C (dose: 400.0 mg/kg/injection, schedule: Q04DX003 (ip), vehicle: Klucel (hydroxypropylcellulose) (HPC)) was 97 % of control.

`COc1cccc2c1C(=O)c1c(O)c3c(c(O)c1C2=O)C[C@@](O)(/C(C)=N\O)C[C@@H]3OC1CC(N)C(O)C(C)O1` (stereo not given in full) was tested, and the T/C (dose: 10.0 mg/kg/injection, schedule: Q07DX002 (ip), vehicle: saline) was 105 % of control, the T/C (dose: 15.0 mg/kg/injection, schedule: Q07DX002 (ip), vehicle: saline) was 110 % of control and the T/C (dose: 23.0 mg/kg/injection, schedule: Q07DX002 (ip), vehicle: saline) was 115 % of control. The T/C (dose: 35.0 mg/kg/injection, schedule: Q07DX002 (ip), vehicle: saline) was 119 % of control.

In the case of `COc1ccc(CC2C(=O)NC(C)C(=O)N(C)C3Cc4ccc(cc4)Oc4cc(ccc4O)CC(C(=O)NC(C)C(=O)NC(C)C(=O)N2C)N(C)C3=O)cc1` (stereo not given), the T/C (dose: 0.5 mg/kg/injection, schedule: Q04DX003 (ip), vehicle: saline) is reported as 97 % of control, the T/C (dose: 1.0 mg/kg/injection, schedule: Q04DX003 (ip), vehicle: saline) is reported as 98 % of control and the T/C (dose: 2.0 mg/kg/injection, schedule: Q04DX003 (ip), vehicle: saline) is reported as 87 % of control. For the same compound, the T/C (dose: 2.59 mg/kg/injection, schedule: Q04DX003 (ip), vehicle: other) was 99 % of control, the T/C (dose: 4.32 mg/kg/injection, schedule: Q04DX003 (ip), vehicle: other) was 103 % of control and the T/C (dose: 7.2 mg/kg/injection, schedule: Q04DX003 (ip), vehicle: other) was 112 % of control. For the same compound, the T/C (dose: 12.0 mg/kg/injection, schedule: Q04DX003 (ip), vehicle: other) was 113 % of control.

In the case of `ClC(Cl)=C(Cl)Cl`, the T/C (dose: 75.0 mg/kg/injection, schedule: Q04DX002 (ip), vehicle: other) is reported as 101 % of control, the T/C (dose: 150.0 mg/kg/injection, schedule: Q04DX002 (ip), vehicle: other) is reported as 93 % of control and the T/C (dose: 300.0 mg/kg/injection, schedule: Q04DX002 (ip), vehicle: other) is reported as 89 % of control.

With `O=C1c2c(O)ccc(O)c2C(=O)c2c(NCCNCCO)ccc(NCCNCCO)c21` the T/C (dose: 0.19 mg/kg/injection, schedule: Q01DX009 (ip), vehicle: saline) was 216 % of control and 277 % of control, the T/C (dose: 0.25 mg/kg/injection, schedule: Q01DX009 (ip), vehicle: acid diluted with saline) was 359 % of control and the T/C (dose: 0.38 mg/kg/injection, schedule: Q01DX009 (ip), vehicle: saline) was 289 % of control and 416 % of control. For the same compound, the T/C (dose: 0.39 mg/kg/injection, schedule: Q01DX009 (ip), vehicle: acid diluted with saline) was 259 % of control, the T/C (dose: 0.39 mg/kg/injection, schedule: Q01DX009 (sc), vehicle: acid diluted with saline) was 104 % of control and the T/C (dose: 0.5 mg/kg/injection, schedule: Q01DX009 (ip), vehicle: acid diluted with saline) was 365 % of control. The T/C (dose: 0.65 mg/kg/injection, schedule: Q01DX009 (ip), vehicle: acid diluted with saline) was 305 % of control, the T/C (dose: 0.65 mg/kg/injection, schedule: Q01DX009 (sc), vehicle: acid diluted with saline) was 104 % of control and the T/C (dose: 0.75 mg/kg/injection, schedule: Q01DX009 (ip), vehicle: saline) was 289 % of control and 416 % of control. For the same compound, the T/C (dose: 1.0 mg/kg/injection, schedule: Q01DX009 (ip), vehicle: acid diluted with saline) was 365 % of control, the T/C (dose: 1.04 mg/kg/injection, schedule: Q04DX003 (ip), vehicle: acid diluted with saline) was 386 % of control and the T/C (dose: 1.04 mg/kg/injection, schedule: Q04DX003 (iv), vehicle: acid diluted with saline) was 116 % of control. The T/C (dose: 1.08 mg/kg/injection, schedule: Q01DX009 (ip), vehicle: acid diluted with saline) was 353 % of control, the T/C (dose: 1.08 mg/kg/injection, schedule: Q01DX009 (sc), vehicle: acid diluted with saline) was 112 % of control and the T/C (dose: 1.5 mg/kg/injection, schedule: Q01DX009 (ip), vehicle: saline) was 109 % of control and 277 % of control. The T/C (dose: 1.5 mg/kg/injection, schedule: Q07DX003 (iv), vehicle: acid diluted with saline) was 100 % of control, the T/C (dose: 1.73 mg/kg/injection, schedule: Q04DX003 (ip), vehicle: acid diluted with saline) was 270 % of control and the T/C (dose: 1.73 mg/kg/injection, schedule: Q04DX003 (iv), vehicle: acid diluted with saline) was 120 % of control. The T/C (dose: 1.8 mg/kg/injection, schedule: Q01DX009 (ip), vehicle: acid diluted with saline) was 110 % of control, the T/C (dose: 2.0 mg/kg/injection, schedule: Q01DX009 (ip), vehicle: acid diluted with saline) was 365 % of control and the T/C (dose: 2.88 mg/kg/injection, schedule: Q04DX003 (ip), vehicle: acid diluted with saline) was 265 % of control. The T/C (dose: 3.24 mg/kg/injection, schedule: Q01DX001 (ip), vehicle: acid diluted with saline) was 209 % of control, the T/C (dose: 3.24 mg/kg/injection, schedule: Q01DX001 (iv), vehicle: acid diluted with saline) was 114 % of control and the T/C (dose: 4.8 mg/kg/injection, schedule: Q04DX003 (ip), vehicle: acid diluted with saline) was 197 % of control. The T/C (dose: 5.4 mg/kg/injection, schedule: Q01DX001 (ip), vehicle: acid diluted with saline) was 237 % of control, the T/C (dose: 5.4 mg/kg/injection, schedule: Q01DX001 (iv), vehicle: acid diluted with saline) was 110 % of control and the T/C (dose: 6.0 mg/kg/injection, schedule: Q07DX003 (iv), vehicle: acid diluted with saline) was 96 % of control. For the same compound, the T/C (dose: 9.0 mg/kg/injection, schedule: Q01DX001 (ip), vehicle: acid diluted with saline) was 123 % of control and the T/C (dose: 9.0 mg/kg/injection, schedule: Q01DX001 (iv), vehicle: acid diluted with saline) was 123 % of control.

`O=C1c2ccccc2C(=O)c2c(NCCCNCCO)ccc(NCCCNCCO)c21` was tested, and the T/C (dose: 16.0 mg/kg/injection, schedule: Q01DX009 (ip), vehicle: acid diluted with saline) was 107 % of control, the T/C (dose: 32.0 mg/kg/injection, schedule: Q01DX009 (ip), vehicle: acid diluted with saline) was 111 % of control and the T/C (dose: 64.0 mg/kg/injection, schedule: Q01DX009 (ip), vehicle: acid diluted with saline) was 123 % of control.

With `O=C(N/N=C\c1cc(Br)cc(Br)c1O)N/N=C/c1cc(Br)cc(Br)c1O` the T/C (dose: 25.0 mg/kg/injection, schedule: Q04DX003 (ip), vehicle: saline with Tween-80) was 118 % of control, the T/C (dose: 50.0 mg/kg/injection, schedule: Q04DX003 (ip), vehicle: saline with Tween-80) was 102 % of control and the T/C (dose: 100.0 mg/kg/injection, schedule: Q04DX003 (ip), vehicle: saline with Tween-80) was 102 % of control. For the same compound, the T/C (dose: 200.0 mg/kg/injection, schedule: Q04DX003 (ip), vehicle: saline with Tween-80) was 123 % of control.
